“Also recorded” adds a separate entry of the source.
T1: CHO cells that express human β3 (β3-CHO) (Homo sapiens, UniProt P05106)
T1 construct: expressed in transfected cells; host or cells: CHO
T1 sequence (P05106 27-788): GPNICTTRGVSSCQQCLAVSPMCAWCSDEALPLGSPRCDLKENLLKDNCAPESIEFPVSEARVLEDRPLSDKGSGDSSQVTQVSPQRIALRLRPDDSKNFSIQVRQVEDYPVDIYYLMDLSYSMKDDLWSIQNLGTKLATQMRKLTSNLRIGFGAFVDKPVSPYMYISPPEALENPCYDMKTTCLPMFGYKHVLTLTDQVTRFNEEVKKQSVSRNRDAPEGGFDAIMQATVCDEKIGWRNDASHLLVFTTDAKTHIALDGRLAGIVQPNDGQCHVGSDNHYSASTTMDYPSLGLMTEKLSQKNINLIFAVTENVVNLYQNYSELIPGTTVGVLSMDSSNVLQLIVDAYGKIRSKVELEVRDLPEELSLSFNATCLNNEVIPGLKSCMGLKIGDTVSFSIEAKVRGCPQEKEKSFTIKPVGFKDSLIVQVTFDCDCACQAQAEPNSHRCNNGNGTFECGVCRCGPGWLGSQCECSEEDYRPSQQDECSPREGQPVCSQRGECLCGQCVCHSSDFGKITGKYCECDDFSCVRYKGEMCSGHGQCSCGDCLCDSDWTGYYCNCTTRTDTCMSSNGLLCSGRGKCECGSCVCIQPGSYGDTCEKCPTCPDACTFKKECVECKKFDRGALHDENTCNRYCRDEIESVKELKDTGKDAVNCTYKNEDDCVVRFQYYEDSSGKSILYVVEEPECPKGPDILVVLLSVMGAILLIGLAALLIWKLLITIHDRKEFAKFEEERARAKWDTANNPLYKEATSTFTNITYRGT

B1: WT NRG1α (175-241): wild type human neuregulin 1 fragment, residues 175-241 of SEQ ID NO:4 (SEQ ID NO:5), entire EGF-like motif and α domain (protein)
chain: GTSHLVKCAEKEKTFCVNGGECFMVKDLSNPSRYLCKCQPGFTGARCTENVPMKVQNQEKAEELYQK
modifications: integrin-binding site within human neuregulin, residues 175-241of human neuregulin 1alpha, long version

Key:
M21 human melanoma cells = experiment: Western blotting of signaling in M21 cells; type: cell-based; conditions: 10 ng/ml; for ERK1/2 activation in M21 cells / ErbB3 phosphorylation in M21 cells: 15 min
Protocol: FIG. 9. Effect of the 3KE (175-222) mutation on ErbB3 phosphorylation, ERK1/2 activation, and cyclin D1 levels in M21 human melanoma cells. Cells were cultured in DMEM+1% FBS medium for 24 h, and then treated with 3KE or WT NRG1 (175-222) (10 ng/ml, if concentrations were not indicated) for 15 min (if time is not specified). Cell lysates were analyzed by Western blotting.
(§1) Cell proliferation: cells were starved by culturing DMEM with low-level FCS (e.g., 0.4%) overnight and then treated with the wt or mutant NRG1 (175-222) (up to 100 ng/ml). The cells were harvested in 15 min to 6 h after stimulation and cell lysates analyzed by western blotting with antibodies specific to signaling molecules. Alternatively, cells were cultured for 24-48 h after stimulation for testing proliferation or cell viability by MTS assays. Statistical analysis and calculation of kinetic constants were performed using Prism software (Graphpad).
Signaling: The levels of cell proliferation were measured by MTS assays and the kinetic data were analyzed by using Prism software (Graphpad). Melanoma cells were cultured in the presence of wt or mutant NRG1 (175-222), and the levels of ErbB2 and B3 phosphorylation, MAP kinase activation, or activation of other signaling molecules in the cell lysates were monitored by immunoprecipitating ErbB2 and B3 from the lysates and detecting tyrosine phosphorylation by western blotting with anti-phosphotyrosine antibodies (the IP-Western method) for ErbB2 and B3. Alternatively, anti-phospho ErbB2 or B3 antibodies (commercially available) and anti-phospho ERK1/2 antibodies were used.

B-16 F10 Cells = experiment: B16F10 cell proliferation, MTS assay; type: cell-based, mouse; conditions: 24 hours
Protocol: FIG. 10. […] B-16 F10 Cells were starved for 5 days in DMEM+1% FBS medium, and then added 3KE (175-222) and WT (175-222) NRG1 at indicated concentrations for 24 hours by MTS assays. P=0.0354 (between wt and 3KE+wt) and P<0.0001 (between wt and 3KE) by 2-way ANOVA.
as §1

[1] = system: Human MCF-7 breast cancer cells; experiment: MCF-7 cell proliferation, MTS assay; type: cell-based; conditions: serum-starved overnight, cultured 48 h, P=0.0018
Protocol: FIG. 12. Effect of wt and 3KE NRG1 (175-222) on the proliferation of MCF-7 cells. Human MCF-7 breast cancer cells were serum-starved overnight and cultured 48 h with wt or mutant GST-NRG1 (175-222). Cell proliferation was measured by using MTS assays. […] P=0.0018 by 2-way ANOVA.
as §1

[2] = system: integrin β3 cytoplasmic domain; experiment: Tyr-phosphorylation of integrin β3 cytoplasmic domain in M21 cells, Western blotting; type: cell-based, human; conditions: 10 ng/ml, serum-starved, 30 min
Protocol: FIG. 13. Wt NRG1 (175-222) enhanced Tyr-phosphorylation of the integrin β3 cytoplasmic domain, while 3KE (175-222) suppressed it in M21 cells. Serum-starved M21 cells were stimulated with 10 ng/ml wt or 3KE NRG1 (175-222). Tyr-phosphorylation of β3 was determined by Western blotting of cell lysates.
It has recently been reported that Tyr phosphorylation of the β3 tail plays a role in VEGF and insulin-like growth factor-1 (IGF1) (Clemmons et al. 2007; Mahabeleshwar et al. 2007). It was tested if NRG1 signaling requires Tyr-phosphorylation of the β3 tail in M21 cells. As shown here, the β3 tail is constitutively Tyr-phosphorylated in serum-starved cells.

[3] = target: T1, CHO cells that express human β3 (β3-CHO); experiment: Cell adhesion assay, β3-CHO cells; type: cell-based
Protocol: CHO or K562 cells expressing different recombinant integrins were previously known and available (Zhang et al. 1998; Tarui et al. 2006). Labeling of proteins with FITC or […] was performed according to manufacturers' instructions. Flow cytometry was performed as described above.
Cell adhesion and soluble integrin binding assays were performed as described previously (Mori, et al., 2008). NRG1α (175-241) was immobilized to wells of 96-well microtiter plate overnight at 4° C. in 0.1 M carbonate buffer, pH 2 9.4. Remaining protein binding sites were blocked by incubating with 200 μl of 0.1% BSA in PBS for 60 min at room temperature. Wells were then incubated with soluble integrin αvβ3 in 50 μl in Hepes-Tyrode's buffer supplemented with 1 mM Mn2+ at room temperature for 60 min. After rinsing the wells with the same buffer, bound integrins were determined by horseradish peroxidase (HRP)-conjugated anti-His tag mouse IgG and substrate 3,3′,5,5′-tetramethylbenzidine of HRP.

Row | Molecule | cyclin D1 levels in M21 cells (M21 human melanoma cells) | ERK1/2 activation in M21 cells (M21 human melanoma cells) | ErbB3 phosphorylation in M21 cells (M21 human melanoma cells) | Induction of cell proliferation in B16F10 cells (B-16 F10 Cells) | Suppression of cell proliferation in B16F10 cells (B-16 F10 Cells; P=0.0354 between wt and 3KE+wt) | Induction of proliferation of MCF-7 cells [1] | Tyr-phosphorylation of the integrin β3 tail in M21 cells [2] | Adhesion of β3-CHO cells to the immobilized protein [3] | ERK1/2 activation in M21 cells (M21 human melanoma cells; listed as Wt NRG1 (175-222))
1 | 3KE (175-222): NRG1 (175-222) with Lys181/Lys185/Lys187 mutated to Glu; GTSHLVECAEEEETFCVNGGECFMVKDLSNPSRYLCKCQPGFTGARCT (SEQ ID NO:11) (integrin-binding site within human neuregulin, 3KE mutant, short version) | suppressed | did not induce the level of ERK1/2 activation; also recorded: suppressed ERK1/2 activation | did not induced ErbB3 phosphorylation | did not induce them | Suppression of cell proliferation | did not | suppressed it |  | 
2 | wt NRG1 (175-222): wild type human neuregulin 1 fragment, EGF-like domain, residues 175-222 of SEQ ID NO:4 (SEQ ID NO:3) (GTSHLVKCAEKEKTFCVNGGECFMVKDLSNPSRYLCKCQPGFTGARCT; integrin-binding site within human neuregulin 1 EGF-like region and portion of alpha domain, residues 175-222 of human neuregulin 1 alpha) [reference compound] |  | enhanced the level of ERK1/2 activation | induced ErbB3 phosphorylation | induced cell proliferation |  | induced cell proliferation | enhanced levels of Tyr-phosphorylation | adhered to NRG1 (175-222) | induced
3 | B1 |  |  |  |  |  |  |  | adhered to NRG1α (175-241) | 

From patent publication US20110212108A1, “NEUREGULIN/ERBB SIGNALING AND INTEGRIN” (THE REGENTS OF THE UNIVERSITY OF CALIFORNIA, priority 2008, published 2011)
